Assay results published in the NIST ThermoML archive (doi:10.1016/j.fluid.2019.112248).
Where “and” joins values, the source holds several entries; their conditions need not be identical. Equal entries are not always repeated. ± gives the expanded uncertainty stated by the source.

Legend:
[1] = for vapor or sublimation pressure: Liquid, Closed cell (Static) method; for Normal melting temperature: DTA
[2] = molar heat capacity at constant pressure; conditions: 101.33 kPa, Liquid, DSC
[3] = Boiling temperature at pressure P; conditions: 100 kPa; Glass; DTA
[4] = Molar enthalpy of transition or fusion; conditions: DSC

SMILES	vapor or sublimation pressure ([1]; 273.7 K)	vapor or sublimation pressure ([1]; 278.19 K)	vapor or sublimation pressure ([1]; 283.19 K)	vapor or sublimation pressure ([1]; 288.19 K)	vapor or sublimation pressure ([1]; 293.2 K)	vapor or sublimation pressure ([1]; 298.2 K)	vapor or sublimation pressure ([1]; 303.2 K)	vapor or sublimation pressure ([1]; 308.21 K)	molar heat capacity at constant pressure ([2]; 265 K)	molar heat capacity at constant pressure ([2]; 270 K)	molar heat capacity at constant pressure ([2]; 275 K)	molar heat capacity at constant pressure ([2]; 280 K)	molar heat capacity at constant pressure ([2]; 285 K)	molar heat capacity at constant pressure ([2]; 290 K)	molar heat capacity at constant pressure ([2]; 295 K)	molar heat capacity at constant pressure ([2]; 300 K)	molar heat capacity at constant pressure ([2]; 305 K)	molar heat capacity at constant pressure ([2]; 310 K)	molar heat capacity at constant pressure ([2]; 315 K)	molar heat capacity at constant pressure ([2]; 320 K)	also measured
C=CCc1ccc(O)c(OC)c1 [2-hydroxy-5-allylanisole]	0.000153 ± 0.00014 kPa and 0.000152 ± 0.00014 kPa	0.000252 ± 0.00014 kPa and 0.000251 ± 0.00014 kPa	0.000451 ± 0.00014 kPa and 0.000443 ± 0.00014 kPa and 0.000444 ± 0.00014 kPa	0.000724 ± 0.00015 kPa and 0.000725 ± 0.00015 kPa and 0.000723 ± 0.00015 kPa	0.001256 ± 0.00016 kPa and 0.001233 ± 0.00016 kPa and 0.001223 ± 0.00016 kPa	0.00193 ± 0.00017 kPa and 0.001938 ± 0.00017 kPa and 0.001934 ± 0.00017 kPa	0.00307 ± 0.0002 kPa and 0.003081 ± 0.0002 kPa and 0.003077 ± 0.0002 kPa	0.004864 ± 0.00025 kPa and 0.004868 ± 0.00025 kPa	311.2 ± 12 J/K/mol	312.8 ± 12 J/K/mol	314.5 ± 12 J/K/mol	315.8 ± 12 J/K/mol	317.4 ± 12 J/K/mol	319.2 ± 12 J/K/mol	321 ± 12 J/K/mol	322.9 ± 12 J/K/mol	324.8 ± 13 J/K/mol	326.4 ± 13 J/K/mol	328.2 ± 13 J/K/mol	329.9 ± 13 J/K/mol	vapor or sublimation pressure ([1]; 308.2 K): 0.004871 ± 0.00025 kPa; Normal melting temperature ([1]; Crystal 1): -11.3 ± 0.5 °C; Normal melting temperature ([1]; Crystal 2): -28.5 ± 0.5 °C; molar heat capacity at constant pressure ([2]; 325 K): 331.7 ± 13 J/K/mol; molar heat capacity at constant pressure ([2]; 330 K): 333.3 ± 13 J/K/mol; molar heat capacity at constant pressure ([2]; 335 K): 334.8 ± 13 J/K/mol; molar heat capacity at constant pressure ([2]; 340 K): 336.1 ± 13 J/K/mol; molar heat capacity at constant pressure ([2]; 345 K): 337.1 ± 13 J/K/mol; molar heat capacity at constant pressure ([2]; 350 K): 338.2 ± 13 J/K/mol; molar heat capacity at constant pressure ([2]; 355 K): 339.1 ± 13 J/K/mol; Boiling temperature at pressure P [3]: -81.7 ± 0.3 °C; Molar enthalpy of transition or fusion ([4]; Crystal 1): 17 ± 1.1 kJ/mol; Molar enthalpy of transition or fusion ([4]; Crystal 2): 8.4 ± 0.6 kJ/mol
C=C(C)[C@H]1CC=C(C)C(=O)C1 [d-carvone]	0.001141 ± 0.00015 kPa	0.001788 ± 0.00016 kPa and 0.001789 ± 0.00016 kPa and 0.00179 ± 0.00016 kPa	0.002902 ± 0.00019 kPa and 0.002899 ± 0.00019 kPa and 0.002893 ± 0.00019 kPa	0.004581 ± 0.00024 kPa	0.007151 ± 0.00032 kPa and 0.007137 ± 0.00032 kPa	0.0109 ± 0.00045 kPa	0.01637 ± 0.00058 kPa and 0.01638 ± 0.00058 kPa	0.02413 ± 0.00072 kPa and 0.02415 ± 0.00072 kPa	264.9 ± 10 J/K/mol	266.7 ± 10 J/K/mol	268.7 ± 10 J/K/mol	270.6 ± 10 J/K/mol	272.9 ± 11 J/K/mol	275.2 ± 11 J/K/mol	277.7 ± 11 J/K/mol	280.3 ± 11 J/K/mol	282.7 ± 11 J/K/mol	284.9 ± 11 J/K/mol	287.1 ± 11 J/K/mol	289.5 ± 11 J/K/mol	vapor or sublimation pressure ([1]; 258.18 K): 0.000197 ± 0.00013 kPa and 0.000202 ± 0.00013 kPa and 0.000201 ± 0.00013 kPa; vapor or sublimation pressure ([1]; 263.19 K): 0.000371 ± 0.00014 kPa and 0.000373 ± 0.00014 kPa; vapor or sublimation pressure ([1]; 268.18 K): 0.000653 ± 0.00014 kPa and 0.000656 ± 0.00014 kPa; vapor or sublimation pressure ([1]; 268.19 K): 0.000653 ± 0.00014 kPa; vapor or sublimation pressure ([1]; 273.19 K): 0.001096 ± 0.00015 kPa and 0.001097 ± 0.00015 kPa; vapor or sublimation pressure ([1]; 273.69 K): 0.001133 ± 0.00015 kPa and 0.001138 ± 0.00015 kPa; vapor or sublimation pressure ([1]; 288.2 K): 0.004579 ± 0.00024 kPa and 0.004587 ± 0.00024 kPa; vapor or sublimation pressure ([1]; 298.21 K): 0.0109 ± 0.00045 kPa; Normal melting temperature ([1]; Crystal): -26.4 ± 0.5 °C; molar heat capacity at constant pressure ([2]; 325 K): 292.1 ± 11 J/K/mol; molar heat capacity at constant pressure ([2]; 330 K): 294.3 ± 11 J/K/mol; molar heat capacity at constant pressure ([2]; 335 K): 296.5 ± 12 J/K/mol; molar heat capacity at constant pressure ([2]; 340 K): 298.2 ± 12 J/K/mol; molar heat capacity at constant pressure ([2]; 345 K): 299.7 ± 12 J/K/mol; molar heat capacity at constant pressure ([2]; 350 K): 301.1 ± 12 J/K/mol; molar heat capacity at constant pressure ([2]; 355 K): 302 ± 12 J/K/mol; Molar enthalpy of transition or fusion ([4]; Crystal): 11.2 ± 0.4 kJ/mol
